# Laboratory results published in patent publication US4582824A, “Method for inhibiting activities of platelet activating factor” (Takeda Chemical Industries, Ltd., priority 1983, dated 1986).
# Columns and labels:
# platelet aggregation = details: compared with ADP and TXA2; cited from earlier work
# [1] = test system: PAF-induced respiratory (airway) stenosis; test: PAF-inhibiting activity in respiratory stenosis; format: in vivo, guinea pig (Hartley); details: for suppression of the airway stenosis response by PAF: 2 minutes before PAF 0.3 μg/kg i.v.
# Procedure: Male and female Hartley strain guinea pigs weighing about 400 g were used. Under urethane anesthesia (1.5 g/kg, i.p.), each animal was immobilized in supine position and one shank of a tracheal cannula (of 4-shank type) was inserted into the airway, with two of the remaining three shanks being connected to a Harvard Apparatus rodent respirator and the remaining one shank to a bronchospasm transducer (Ugo-basile Model 7020). At an air volume of 5 to 7 ml per cycle, an air supply frequency of 70 times/min. and a lung loading pressure of 10 cm H2 O, the volume of overflowing air was recorded through the transducer on a rectigraph (Rectigraph-8S, Sanei Sokki K.K.). After gallamine triethodide (1 mg/kg, i.v.) treatment, […] of histamine 2HCl was intravenously administered to examine the response of the animal. When 0.3 μg/kg of PAF was intravenously administered to control group intravenously pretreated with physiological saline, a miximum airway stenosis was noted after 30 minutes and the amount of stenosis taking a complete stenosis as 100% was 72.8±4.3 (mean±S.D., for 6 cases). The compound of Production Example 2, when intravenously administered 2 minutes before at the dose levels of 0.3 and 1 mg/kg, suppressed the above response by PAF by 49% and 82%, respectively.
# respiratory stenosis = details: compared with all the known compounds; cited from earlier work
# [2] = test system: circulatory shock due to PAF; test: Inhibitory activity against circulatory shock due to PAF in anesthetized dogs; format: in vivo, mongrel dogs
# Procedure: Male and female mongrel dogs weighing 9 to 13 kg were used. Under pentobarital sodium ([…], i.v.) anesthesia and supportive respiration, a thoracotomy was performed at the left fourth interspace. The origin of the left coronary circumflex and the aortic arch were released, an electromagnetic probe was attached to each, and the coronary blood flow (CoF) and cardiac output (CO) were measured. Moreover, a polyethylene cannula was inserted from the apex of the heart into the left ventricle and the left ventricular pressure (LVP) was measured by means of a pressure transducer. In addition, its first-order differential dp/dt was determined by way of a differential circuit. The mean blood pressure (MBP) was continuously recorded on an ink-writing polygraph through a pressure transducer via a cannula inserted into the right femoral artery and the heart rate (HR) was similarly recorded via a tachometer driven by mean blood pressure pulse waves. PAF and the compound of Production Example 2 were respectively dissolved in physiological saline and administered via a cannula into the left femoral vein. After 1.0 μg/kg of PAF was intravenously administered and the respective parameters recovered to normal, the compound of Production Example 2 (10 mg/kg) was intravenously administered. After 10 minutes, 1.0 μg/kg of PAF was intravenously administered to estimate the anti-PAF activity of the compound of Production Example 2. All values are in percents relative to the values prior to PAF administration.
# endotoxin-induced death = test: Preventive effect against endotoxin-induced death in mice; format: in vivo, mouse (ICR-Jcl); details: 10 mg/kg i.v. + endotoxin 15 mg/kg i.v.
# Procedure: Male mice of ICR-Jcl strain, aged 5 weeks and with a body weight of about 30 g, were used in groups of 7 individuals. For the control group, 15 mg/kg of endotoxin was suspended in 0.1 ml/10 g of physiological saline and injected into the tail vein. For the compound (IA) treatment group, 10 mg/kg of the compound (IA) and 15 mg/kg of endotoxin were suspended in 0.1 ml/10 g of physiological saline and similarly injected into the tail vein. The mice were examined for death up to 20 hours after the treatment.
# [3] = test system: endotoxin-induced blood pressure fall; test: Anti-endotoxin shock activity in rats; format: in vivo, rat (Sprague-Dawley); details: 10 mg/kg i.v., 10 minutes before endotoxin 15 mg/kg i.v., mean ± SD
# Procedure: Male Sprague-Dawley rats weighing 500 to 600 g were used under pentobarbital sodium (50 mg/kg, i.v.) anesthesia. A cannula was inserted into the femoral artery and secured in position for measurement of blood pressure and another cannula into the femoral vein for administration of a solution of the drug. The blood pressure was measured via a pressure transducer and recorded on a polygraph. For a control group, a suspension of endotoxin (Lipopolysaccharide W. E. coli 0111: B4, Wako Pure Chemical) in physiological saline was administered into the femoral vein and the maximum hypotensive response occurring 3 to 5 minutes after administration was recorded. On the other hand, for the administration of 3-(N-n-octadecylcarbamoyloxy)-2-methoxypropyl 2-thiazolioethyl phosphate [hereinafter, compound (IA)], the compound (IA) was dissolved in physiological saline and administered into the femoral vein in a dose of 10 mg/kg. Ten (10) minutes after the administration of (IA), endotoxin was similarly administered and the maximum hypotensive response was recorded. The anti-endotoxin shock activity of the test compound was estimated from the difference in blood pressure response between the (IA) treatment group and the non-(IA)treatment group.
# [4] = test system: PAF-induced platelet aggregation (washed PRP); test: Activity to inhibit PAF in platelet aggregation (washed PRP); format: cell-based, rabbit; details: Oryctolagus cuniculus, test compound 3×10^-5 M, PAF 3×10^-7 M, 37° C., read-out: Inhibition rate
# Procedure: Using an injection syringe containing a 3.15% solution of citric acid (in a ratio of 1 part per 9 parts of blood) as an anticoagulant, the blood was directly collected from a male rabbit. Then, at room temperature, the blood was centrifuged at 1,000 r.p.m. for 10 minutes to harvest a platelet rich plasma (PRP). This PRP was further centrifuged at 1,400 r.p.m. for 15 minutes to give a platelet pellet. The pellet was suspended in Ca^++ -free Tyrode solution (containing 0.25% of gelatin) to give a washed PRP. This washed PRP (250 μl) was stirred at 37° C. for 2 minutes, then 25 μl of a 0.2 to 0.5 mM Ca^++ solution was added, and the mixture was further stirred for 30 seconds. Then, the test compound was added to the above platelet preparation to a level of 3×10^-5 M. After stirring the mixture for 2 minutes, 3×10^-7 M of PAF was added. The degree of platelet aggregation was determined with a platelet aggregometer (Rika Denki). The activity of the test compound was estimated from the inhibition rate as compared with the maximum optical transmission (maximum aggregation) of control PRP by PAF.
# [5] = PAF 1.0 μg/kg i.v. alone, 0.5 min
# [6] = PAF 1.0 μg/kg i.v. alone, 1 min
# [7] = PAF 1.0 μg/kg i.v. alone, 5 min
# [8] = PAF 1.0 μg/kg i.v. after pretreatment 10 mg/kg i.v., 0.5 min
# [9] = PAF 1.0 μg/kg i.v. after pretreatment 10 mg/kg i.v., 1 min
# [10] = PAF 1.0 μg/kg i.v. after pretreatment 10 mg/kg i.v., 5 min
smiles,measurement,setting,value
"CCCCCCCCCCCCCCCCOCC(COP(=O)([O-])OCC[N+](C)(C)C)OC(C)=O (stereo not shown) [PAF, 1-O-alkyl-2-acetyl-sn-glyceryl-3-phosphorylcholine]",platelet aggregation activity in words,platelet aggregation,greater activity at lower concentrations
same,amount of stenosis taking a complete stenosis as 100%,"[1]; PAF 0.3 μg/kg i.v., control group pretreated with saline, mean±S.D., 6 cases",72.8±4.3%
same,activity in respiratory stenosis assay in words,respiratory stenosis,highest activity of all the known compounds
same,decrease of CO in words,[2]; PAF 1.0 μg/kg i.v.,particularly remarkable
same,heart rate (HR) change in words,[2]; PAF 1.0 μg/kg i.v.,only a slight decrease
same,time before the preadministration values were recovered,[2]; PAF 1.0 μg/kg i.v.,60 min
same,CO (percent of value prior to PAF),[2]; [5],93 ± 13%
same,CoF (percent of value prior to PAF),[2]; [5],75 ± 3%
same,DBP (percent of value prior to PAF),[2]; [5],58 ± 3%
same,HR (percent of value prior to PAF),[2]; [5],96 ± 8%
same,LVP (percent of value prior to PAF),[2]; [5],81 ± 1%
same,MBP (percent of value prior to PAF),[2]; [5],62 ± 4%
same,SBP (percent of value prior to PAF),[2]; [5],70 ± 5%
same,max dp/dt (row head is a drawing; percent of value prior to PAF),[2]; [5],76 ± 8%
same,CO (percent of value prior to PAF),[2]; [6],33 ± 3%
same,CoF (percent of value prior to PAF),[2]; [6],77 ± 3%
same,DBP (percent of value prior to PAF),[2]; [6],47 ± 3%
same,HR (percent of value prior to PAF),[2]; [6],95 ± 8%
same,LVP (percent of value prior to PAF),[2]; [6],59 ± 7%
same,MBP (percent of value prior to PAF),[2]; [6],49 ± 5%
same,SBP (percent of value prior to PAF),[2]; [6],52 ± 5%
same,max dp/dt (row head is a drawing; percent of value prior to PAF),[2]; [6],50 ± 3%
same,CO (percent of value prior to PAF),[2]; [7],35 ± 7%
same,CoF (percent of value prior to PAF),[2]; [7],56 ± 2%
same,DBP (percent of value prior to PAF),[2]; [7],67 ± 12%
same,HR (percent of value prior to PAF),[2]; [7],89 ± 3%
same,LVP (percent of value prior to PAF),[2]; [7],62 ± 6%
same,MBP (percent of value prior to PAF),[2]; [7],63 ± 11%
same,SBP (percent of value prior to PAF),[2]; [7],59 ± 9%
same,max dp/dt (row head is a drawing; percent of value prior to PAF),[2]; [7],54 ± 7%
"CCCCCCCCCCCCCCCCCCNC(=O)OCC(COP(=O)([O-])OCC[n+]1ccsc1)OC (stereo not shown) [Production Example 2, 3-(N-Octadecylcarbamoyloxy)-2-methoxypropyl 2-thiazolioethyl phosphate]",Mortality within 20 hrs.,endotoxin-induced death,14%
same,"No. of deaths within 20 hrs. after drug administration, Deaths/survivals",endotoxin-induced death,1/7
same,Max. hypotensive response after drug administration (-ΔmmHg),[3]; listed as Compound (IA),15 ± 3 mmHg
same,Max. hypotensive response after drug administration (-ΔmmHg),[3]; listed as compound (IA),15 mmHg
same,inhibition at 30 µM,[4],100%
same,suppression of the airway stenosis response by PAF,[1]; 0.3 mg/kg i.v.,49%
same,suppression of the airway stenosis response by PAF,[1]; 1 mg/kg i.v.,82%
same,CO (percent of value prior to PAF),[2]; [8],107 ± 4%
same,CoF (percent of value prior to PAF),[2]; [8],109 ± 4%
same,DBP (percent of value prior to PAF),[2]; [8],78 ± 5%
same,HR (percent of value prior to PAF),[2]; [8],109 ± 2%
same,LVP (percent of value prior to PAF),[2]; [8],92 ± 3%
same,MBP (percent of value prior to PAF),[2]; [8],87 ± 7%
same,SBP (percent of value prior to PAF),[2]; [8],90 ± 3%
same,max dp/dt (row head is a drawing; percent of value prior to PAF),[2]; [8],94 ± 7%
same,CO (percent of value prior to PAF),[2]; [9],99 ± 2%
same,CoF (percent of value prior to PAF),[2]; [9],103 ± 3%
same,DBP (percent of value prior to PAF),[2]; [9],99 ± 1%
same,HR (percent of value prior to PAF),[2]; [9],105 ± 1%
same,LVP (percent of value prior to PAF),[2]; [9],97 ± 3%
same,MBP (percent of value prior to PAF),[2]; [9],99 ± 1%
same,SBP (percent of value prior to PAF),[2]; [9],99 ± 1%
same,max dp/dt (row head is a drawing; percent of value prior to PAF),[2]; [9],98 ± 2%
same,CO (percent of value prior to PAF),[2]; [10],103 ± 5%
same,CoF (percent of value prior to PAF),[2]; [10],97 ± 3%
same,DBP (percent of value prior to PAF),[2]; [10],101 ± 2%
same,HR (percent of value prior to PAF),[2]; [10],103 ± 3%
same,LVP (percent of value prior to PAF),[2]; [10],100 ± 1%
same,MBP (percent of value prior to PAF),[2]; [10],101 ± 2%
same,SBP (percent of value prior to PAF),[2]; [10],102 ± 3%
same,max dp/dt (row head is a drawing; percent of value prior to PAF),[2]; [10],102 ± 3%
